Reference: patent US6319702A, “Nucleic acids encoding mutant human carboxypeptidase A enzymes” (Glaxo Wellcome, Inc., priority 1993, dated 2001)
Where two headings read alike, the source gives them in different places.

Columns and labels:
268gly = assay: Enzyme kinetics of prodrugs with 268gly mutant of human CPA1 (coupled assay); type: biochemical; conditions: for kcat/Km: 268Gly
How it was run: (§1)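 Coupled spectrophotometric assay: released methotrexate converted by excess carboxypeptidase G (17 milliunits) to its pteroate, followed at 315 nm (Δε 9.57 mM^-1 cm^-1). 25° C in 25 mM tris-HCl, 100 mM NaCl, pH 7.4; reaction started with wild-type or mutant carboxypeptidase A. Kinetic constants from initial velocities by Michaelis-Menten analysis.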

in vivo = conditions: mouse, iv
mutant enzyme = assay: Substrate behaviour with mutant enzyme; type: biochemical, human
Text: This type of compound is not useful for ADEPT.

[1] = Stability and biodistribution of prodrugs in vivo (HPLC of plasma and tissues); design: species or system mice (CD-1 nude; BALB/C where indicated); conditions: for stability in vivo (in words): mice
268ala = assay: Enzyme kinetics of prodrugs with 268ala mutant of human CPA1 (coupled assay); type: biochemical; conditions: 25° C., pH 7.4
How it was run: as §1

[2] = target: T1, wild type human carboxypeptidase A1 (Homo sapiens, UniProt P15085); assay: Enzyme kinetics of prodrugs with wild type human carboxypeptidase A1 (coupled assay); type: biochemical
T1 sequence (P15085 111-419): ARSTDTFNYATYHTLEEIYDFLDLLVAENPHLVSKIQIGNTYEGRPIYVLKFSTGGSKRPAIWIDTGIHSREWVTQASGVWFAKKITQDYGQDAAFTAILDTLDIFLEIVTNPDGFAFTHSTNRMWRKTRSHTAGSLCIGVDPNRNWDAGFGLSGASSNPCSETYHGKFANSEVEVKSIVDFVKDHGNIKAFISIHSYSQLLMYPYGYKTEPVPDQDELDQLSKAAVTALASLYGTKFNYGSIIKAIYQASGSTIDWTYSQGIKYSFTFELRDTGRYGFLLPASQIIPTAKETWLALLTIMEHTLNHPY
How it was run: as §1

[3] = CECUM, 30 min, 50 mg/kg i.p. or i.v., CD-1 nude mice
[4] = CECUM, 120 min, 50 mg/kg i.p. or i.v., CD-1 nude mice
[5] = FECES, 30 min, 50 mg/kg i.p. or i.v., CD-1 nude mice
[6] = FECES, 120 min, 50 mg/kg i.p. or i.v., CD-1 nude mice
[7] = KIDNEY, 30 min, 50 mg/kg i.p. or i.v., CD-1 nude mice
[8] = KIDNEY, 120 min, 50 mg/kg i.p. or i.v., CD-1 nude mice
[9] = LARGE INTESTINE, 30 min, 50 mg/kg i.p. or i.v., CD-1 nude mice
[10] = LARGE INTESTINE, 120 min, 50 mg/kg i.p. or i.v., CD-1 nude mice
[11] = LIVER, 30 min, 50 mg/kg i.p. or i.v., CD-1 nude mice
[12] = LIVER, 120 min, 50 mg/kg i.p. or i.v., CD-1 nude mice
[13] = SMALL INTESTINE, 30 min, 50 mg/kg i.p. or i.v., CD-1 nude mice
[14] = SMALL INTESTINE, 120 min, 50 mg/kg i.p. or i.v., CD-1 nude mice
[15] = SPLEEN, 30 min, 50 mg/kg i.p. or i.v., CD-1 nude mice
[16] = mouse, cecum, 50 mg/kg, CECUM, 30 min, 50 mg/kg i.p. or i.v., CD-1 nude mice, read-out: stability: percentage of material observed as intact prodrug, cecum
[17] = mouse, cecum, 50 mg/kg, CECUM, 120 min, 50 mg/kg i.p. or i.v., CD-1 nude mice, read-out: stability: percentage of material observed as intact prodrug, cecum
[18] = mouse, feces, 50 mg/kg, FECES, 30 min, 50 mg/kg i.p. or i.v., CD-1 nude mice, read-out: stability: percentage of material observed as intact prodrug, feces (converted)
[19] = mouse, feces, 50 mg/kg, FECES, 120 min, 50 mg/kg i.p. or i.v., CD-1 nude mice, read-out: stability: percentage of material observed as intact prodrug, feces
[20] = mouse, kidney, 50 mg/kg, KIDNEY, 30 min, 50 mg/kg i.p. or i.v., CD-1 nude mice, read-out: stability: percentage of material observed as intact prodrug, kidney
[21] = mouse, kidney, 50 mg/kg, KIDNEY, 120 min, 50 mg/kg i.p. or i.v., CD-1 nude mice, read-out: stability: percentage of material observed as intact prodrug, kidney
[22] = mouse, large intestine, 50 mg/kg, LARGE INTESTINE, 30 min, 50 mg/kg i.p. or i.v., CD-1 nude mice, read-out: stability: percentage of material observed as intact prodrug, large intestine
[23] = mouse, large intestine, 50 mg/kg, LARGE INTESTINE, 120 min, 50 mg/kg i.p. or i.v., CD-1 nude mice, read-out: stability: percentage of material observed as intact prodrug, large intestine
[24] = mouse, liver, 50 mg/kg, LIVER, 30 min, 50 mg/kg i.p. or i.v., CD-1 nude mice, read-out: stability: percentage of material observed as intact prodrug, liver (converted)
[25] = mouse, liver, 50 mg/kg, LIVER, 120 min, 50 mg/kg i.p. or i.v., CD-1 nude mice, read-out: stability: percentage of material observed as intact prodrug, liver
[26] = mouse, plasma, 50 mg/kg, PLASMA, 30 min, 50 mg/kg i.p. or i.v., CD-1 nude mice, read-out: concentration of prodrug in plasma
[27] = mouse, plasma, 50 mg/kg, PLASMA, 30 min, 50 mg/kg i.p. or i.v., CD-1 nude mice, read-out: stability: percentage of material observed as intact prodrug, plasma
[28] = mouse, small intestine, 50 mg/kg, SMALL INTESTINE, 30 min, 50 mg/kg i.p. or i.v., CD-1 nude mice, read-out: stability: percentage of material observed as intact prodrug, small intestine
[29] = mouse, small intestine, 50 mg/kg, SMALL INTESTINE, 120 min, 50 mg/kg i.p. or i.v., CD-1 nude mice, read-out: stability: percentage of material observed as intact prodrug, small intestine
[30] = mouse, spleen, 50 mg/kg, SPLEEN, 30 min, 50 mg/kg i.p. or i.v., CD-1 nude mice, read-out: stability: percentage of material observed as intact prodrug, spleen

SMILES: CN(Cc1cnc2nc(N)nc(N)c2n1)c1ccc(C(=O)N[C@@H](CCC(=O)O)C(=O)N[C@@H](Cc2ccccc2C2CCCC2)C(=O)O)cc1 [Prodrug 8]
- kcat/Km (268gly): 157000 M⁻¹ s⁻¹
- Km (268gly; 268gly, 25° C., pH 7.4): 15 µM
- kcat (268gly; 268gly, 25° C., pH 7.4): 2.35 s⁻¹
- MTD (in vivo): ≥ 20 mg/kg
- substrate for a mutant enzyme (in words) (mutant enzyme): good substrates for a mutant enzyme
- concentration of prodrug in cecum [1, 3]: 6.8 nmol/g
- concentration of prodrug in cecum [1, 4]: 235.1 nmol/g
- concentration of prodrug in feces [1, 5]: 150.2 nmol/g
- concentration of prodrug in feces [1, 6]: 646.2 nmol/g
- concentration of prodrug in kidney [1, 7]: 5.6 nmol/g
- concentration of prodrug in kidney [1, 8]: 3.2 nmol/g
- concentration of prodrug in large intestine [1, 9]: 5.2 nmol/g
- concentration of prodrug in large intestine [1, 10]: 27.3 nmol/g
- concentration of prodrug in liver [1, 11]: 113.5 nmol/g
- concentration of prodrug in liver [1, 12]: 43.9 nmol/g
- concentration of prodrug in small intestine [1, 13]: 364.5 nmol/g
- concentration of prodrug in small intestine [1, 14]: 31.7 nmol/g
- concentration of prodrug in spleen [1, 15]: 1.4 nmol/g
- concentration of prodrug in spleen ([1]; SPLEEN, 120 min, 50 mg/kg i.p. or i.v., CD-1 nude mice): 1.1 nmol/g
- stability in vivo (in words) ([1]; 50 mg/kg): stable in vivo
- remaining at 0.5 h [1, 16]: 75%
- remaining at 2 h [1, 17]: 56%
- remaining at 0.5 h [1, 18]: 71%
- remaining at 2 h [1, 19]: 55%
- remaining at 0.5 h [1, 20]: 84%
- remaining at 2 h [1, 21]: 81%
- remaining at 0.5 h [1, 22]: 93%
- remaining at 2 h [1, 23]: 57%
- remaining at 0.5 h [1, 24]: 90%
- remaining at 2 h [1, 25]: 76%
- concentration at 0.5 h [1, 26]: 28500 nM
- remaining at 0.5 h [1, 27]: 95%
- concentration at 2 h ([1]; mouse, plasma, 50 mg/kg, PLASMA, 120 min, 50 mg/kg i.p. or i.v., CD-1 nude mice, read-out: concentration of prodrug in plasma): 1100 nM
- remaining at 2 h ([1]; mouse, plasma, 50 mg/kg, PLASMA, 120 min, 50 mg/kg i.p. or i.v., CD-1 nude mice, read-out: stability: percentage of material observed as intact prodrug, plasma): 90%
- remaining at 0.5 h [1, 28]: 77%
- remaining at 2 h [1, 29]: 35%
- remaining at 0.5 h [1, 30]: 98%
- remaining at 2 h ([1]; mouse, spleen, 50 mg/kg, SPLEEN, 120 min, 50 mg/kg i.p. or i.v., CD-1 nude mice, read-out: stability: percentage of material observed as intact prodrug, spleen): 100%
- Km (268ala): 56 µM
- kcat (268ala): 0.088 s⁻¹
- kcat/Km for human CPA1 compared with that of the L-phenylalanine prodrug (in words) [2]: much lower
- substrate for wild type CPA (in words) [2]: not for the wild type enzyme
- kcat ([2]; Human CPA1, 25° C., pH 7.4): 0.012 s⁻¹

SMILES: CN(Cc1cnc2nc(N)nc(N)c2n1)c1ccc(C(=O)N[C@@H](CCC(=O)O)C(=O)N[C@@H](Cc2cccc(C3CCCC3)c2)C(=O)O)cc1 [Prodrug 9]
- kcat/Km (268gly): 92000 M⁻¹ s⁻¹
- substrate for a mutant enzyme (in words) (mutant enzyme): good substrates for a mutant enzyme
- concentration of prodrug in cecum [1, 3]: 4.l
- concentration of prodrug in cecum [1, 4]: 108.3 nmol/g
- concentration of prodrug in feces ([1]; FECES, 30 min, 50 mg/kg i.p. or i.v., BALB/C mice): 1604.27 nmol/g
- concentration of prodrug in feces [1, 5]: 1104.1 nmol/g
- concentration of prodrug in feces [1, 6]: 1505.7 nmol/g
- concentration of prodrug in kidney [1, 7]: 6.8 nmol/g
- concentration of prodrug in kidney [1, 8]: 1.3 nmol/g
- concentration of prodrug in large intestine [1, 9]: 2.6 nmol/g
- concentration of prodrug in large intestine [1, 10]: 6.2 nmol/g
- concentration of prodrug in liver [1, 11]: 54.3 nmol/g
- concentration of prodrug in liver [1, 12]: 126.2 nmol/g
- concentration of prodrug in small intestine ([1]; SMALL INTESTINE, 30 min, 50 mg/kg i.p. or i.v., BALB/C mice): 420.3 nmol/g
- concentration of prodrug in small intestine [1, 13]: 377.9 nmol/g
- concentration of prodrug in small intestine [1, 14]: 211.0 nmol/g
- concentration of prodrug in spleen [1, 15]: 8.4 nmol/g
- stability in vivo (in words) ([1]; 50 mg/kg): stable in vivo
- remaining at 0.5 h [1, 16]: 100%
- remaining at 2 h [1, 17]: 99%
- remaining at 0.5 h ([1]; mouse, feces, 50 mg/kg, FECES, 30 min, 50 mg/kg i.p. or i.v., BALB/C mice, read-out: stability: percentage of material observed as intact prodrug, feces (converted)): 98%
- remaining at 0.5 h [1, 18]: 97%
- remaining at 2 h [1, 19]: 94%
- remaining at 0.5 h [1, 20]: 100%
- remaining at 2 h [1, 21]: 100%
- remaining at 0.5 h [1, 22]: 100%
- remaining at 2 h [1, 23]: 100%
- remaining at 0.5 h [1, 24]: 83%
- remaining at 2 h [1, 25]: 94%
- concentration at 0.5 h ([1]; mouse, plasma, 50 mg/kg, PLASMA, 30 min, 50 mg/kg i.p. or i.v., BALB/C mice, read-out: concentration of prodrug in plasma): 4900 nM
- remaining at 0.5 h ([1]; mouse, plasma, 50 mg/kg, PLASMA, 30 min, 50 mg/kg i.p. or i.v., BALB/C mice, read-out: stability: percentage of material observed as intact prodrug, plasma): 100%
- concentration at 0.5 h [1, 26]: 1100 nM
- remaining at 0.5 h [1, 27]: 100%
- remaining at 0.5 h ([1]; mouse, small intestine, 50 mg/kg, SMALL INTESTINE, 30 min, 50 mg/kg i.p. or i.v., BALB/C mice, read-out: stability: percentage of material observed as intact prodrug, small intestine): 98%
- remaining at 0.5 h [1, 28]: 97%
- remaining at 2 h [1, 29]: 93%
- remaining at 0.5 h [1, 30]: 100%
- human CPA catalyzed reaction (in words) [2]: not measureable
- kcat/Km for human CPA1 compared with that of the L-phenylalanine prodrug (in words) [2]: much lower
- substrate for wild type CPA (in words) [2]: not for the wild type enzyme
